The compounds below were run on HCT-15 (assay: SRB 48 h growth assay, Colon HCT-15). Settings: HCT-15, Colon.
Type: cell-based, human
For C#Cc1ccc(-n2c(/C=C/c3ccc4ccccc4c3)nc3ncccc3c2=O)cc1 [4s, (E)-3-(4-Ethynylphenyl)-2-(2-(naphthalen-2-yl)vinyl)pyrido[2,3-d]pyrimidin-4(3H)-one], the “Log10 TGI50” value was >−4.00.

Same assay, conditions: Homo sapiens, HCT-15, Colon, read-out: Growth Inhibition GI50
In the case of C#Cc1ccc(-n2c(/C=C/c3ccc4ccccc4c3)nc3ncccc3c2=O)cc1 [4s, (E)-3-(4-Ethynylphenyl)-2-(2-(naphthalen-2-yl)vinyl)pyrido[2,3-d]pyrimidin-4(3H)-one], the GI50 is reported as 2910 nM.

Same assay, conditions: Homo sapiens, HCT-15, Colon, read-out: Log10 GI50 (converted)
C#Cc1ccc(-n2c(/C=C/c3ccc4ccccc4c3)nc3ncccc3c2=O)cc1 [4s, (E)-3-(4-Ethynylphenyl)-2-(2-(naphthalen-2-yl)vinyl)pyrido[2,3-d]pyrimidin-4(3H)-one] showed a GI50 of 2880 nM.

Same assay, conditions: Homo sapiens, HCT-15, Colon, read-out: Log10 LC50 (converted)
In the case of C#Cc1ccc(-n2c(/C=C/c3ccc4ccccc4c3)nc3ncccc3c2=O)cc1 [4s, (E)-3-(4-Ethynylphenyl)-2-(2-(naphthalen-2-yl)vinyl)pyrido[2,3-d]pyrimidin-4(3H)-one], the CC50 is reported as > 100000 nM.

The compounds below were run on NCI-H460 (assay: SRB 48 h growth assay, Non-small Cell Lung NCI-H460). Settings: not given.
Type: cell-based, human
For C#Cc1ccc(-n2c(/C=C/c3ccc4ccccc4c3)nc3ncccc3c2=O)cc1 [4s, (E)-3-(4-Ethynylphenyl)-2-(2-(naphthalen-2-yl)vinyl)pyrido[2,3-d]pyrimidin-4(3H)-one], the “Log10 TGI50” value was >−4.00.

Same assay, conditions: Homo sapiens, read-out: Growth Inhibition GI50
In the case of C#Cc1ccc(-n2c(/C=C/c3ccc4ccccc4c3)nc3ncccc3c2=O)cc1 [4s, (E)-3-(4-Ethynylphenyl)-2-(2-(naphthalen-2-yl)vinyl)pyrido[2,3-d]pyrimidin-4(3H)-one], the GI50 is reported as 2880 nM.

Same assay, conditions: Homo sapiens, read-out: Log10 GI50 (converted)
C#Cc1ccc(-n2c(/C=C/c3ccc4ccccc4c3)nc3ncccc3c2=O)cc1 [4s, (E)-3-(4-Ethynylphenyl)-2-(2-(naphthalen-2-yl)vinyl)pyrido[2,3-d]pyrimidin-4(3H)-one] gave a GI50 of 2880 nM.

Same assay, conditions: Homo sapiens, read-out: Log10 LC50 (converted)
In the case of C#Cc1ccc(-n2c(/C=C/c3ccc4ccccc4c3)nc3ncccc3c2=O)cc1 [4s, (E)-3-(4-Ethynylphenyl)-2-(2-(naphthalen-2-yl)vinyl)pyrido[2,3-d]pyrimidin-4(3H)-one], the LC50 is reported as > 100000 nM.

What follows are compounds tested on T-47D (assay: SRB 48 h growth assay, Breast T-47D). Settings: not given.
Type: cell-based, human
In the case of C#Cc1ccc(-n2c(/C=C/c3ccc4ccccc4c3)nc3ncccc3c2=O)cc1 [4s, (E)-3-(4-Ethynylphenyl)-2-(2-(naphthalen-2-yl)vinyl)pyrido[2,3-d]pyrimidin-4(3H)-one], the “Log10 TGI50” value is reported as >−4.00.

Same assay, conditions: Homo sapiens, T47D, read-out: Growth Inhibition GI50
Work on C#Cc1ccc(-n2c(/C=C/c3ccc4ccccc4c3)nc3ncccc3c2=O)cc1 [4s, (E)-3-(4-Ethynylphenyl)-2-(2-(naphthalen-2-yl)vinyl)pyrido[2,3-d]pyrimidin-4(3H)-one] yielded a GI50 of 3900 nM.

Same assay, conditions: Homo sapiens, T47D, read-out: Log10 GI50 (converted)
Work on C#Cc1ccc(-n2c(/C=C/c3ccc4ccccc4c3)nc3ncccc3c2=O)cc1 [4s, (E)-3-(4-Ethynylphenyl)-2-(2-(naphthalen-2-yl)vinyl)pyrido[2,3-d]pyrimidin-4(3H)-one] yielded a GI50 of 3890 nM.

Same assay, conditions: Homo sapiens, T47D, read-out: Log10 LC50 (converted)
For C#Cc1ccc(-n2c(/C=C/c3ccc4ccccc4c3)nc3ncccc3c2=O)cc1 [4s, (E)-3-(4-Ethynylphenyl)-2-(2-(naphthalen-2-yl)vinyl)pyrido[2,3-d]pyrimidin-4(3H)-one], the CC50 was > 100000 nM.

What follows are compounds tested on MOLT-4 (assay: SRB 48 h growth assay, Leukemia MOLT-4). Settings: Homo sapiens, MOLT-4, Leukemia, read-out: Growth Inhibition GI50.
Type: cell-based, human
C#Cc1ccc(-n2c(/C=C/c3ccc4ccccc4c3)nc3ncccc3c2=O)cc1 [4s, (E)-3-(4-Ethynylphenyl)-2-(2-(naphthalen-2-yl)vinyl)pyrido[2,3-d]pyrimidin-4(3H)-one] showed a GI50 of 2000 nM.

Same assay, conditions: Homo sapiens, MOLT-4, Leukemia, read-out: Log10 GI50 (converted)
Compound C#Cc1ccc(-n2c(/C=C/c3ccc4ccccc4c3)nc3ncccc3c2=O)cc1 [4s, (E)-3-(4-Ethynylphenyl)-2-(2-(naphthalen-2-yl)vinyl)pyrido[2,3-d]pyrimidin-4(3H)-one] has a GI50 of 2000 nM.

Same assay, conditions: Homo sapiens, MOLT-4, Leukemia, read-out: Log10 LC50 (converted)
For C#Cc1ccc(-n2c(/C=C/c3ccc4ccccc4c3)nc3ncccc3c2=O)cc1 [4s, (E)-3-(4-Ethynylphenyl)-2-(2-(naphthalen-2-yl)vinyl)pyrido[2,3-d]pyrimidin-4(3H)-one], the CC50 was > 100000 nM.

Same assay, conditions: MOLT-4, Leukemia
In the case of C#Cc1ccc(-n2c(/C=C/c3ccc4ccccc4c3)nc3ncccc3c2=O)cc1 [4s, (E)-3-(4-Ethynylphenyl)-2-(2-(naphthalen-2-yl)vinyl)pyrido[2,3-d]pyrimidin-4(3H)-one], the “Log10 TGI50” value is reported as >−4.00.

These compounds were tested on SF-268 (assay: SRB 48 h growth assay, CNS SF-268). Settings: Homo sapiens, SF-268, CNS, read-out: Growth Inhibition GI50.
Type: cell-based, human
Work on C#Cc1ccc(-n2c(/C=C/c3ccc4ccccc4c3)nc3ncccc3c2=O)cc1 [4s, (E)-3-(4-Ethynylphenyl)-2-(2-(naphthalen-2-yl)vinyl)pyrido[2,3-d]pyrimidin-4(3H)-one] yielded a GI50 of 2600 nM.

Same assay, conditions: Homo sapiens, SF-268, CNS, read-out: Log10 GI50 (converted)
C#Cc1ccc(-n2c(/C=C/c3ccc4ccccc4c3)nc3ncccc3c2=O)cc1 [4s, (E)-3-(4-Ethynylphenyl)-2-(2-(naphthalen-2-yl)vinyl)pyrido[2,3-d]pyrimidin-4(3H)-one] gave a GI50 of 2630 nM.

Same assay, conditions: Homo sapiens, SF-268, CNS, read-out: Log10 LC50 (converted)
C#Cc1ccc(-n2c(/C=C/c3ccc4ccccc4c3)nc3ncccc3c2=O)cc1 [4s, (E)-3-(4-Ethynylphenyl)-2-(2-(naphthalen-2-yl)vinyl)pyrido[2,3-d]pyrimidin-4(3H)-one] was tested, and the CC50 was > 100000 nM.

Same assay, conditions: SF-268, CNS
In the case of C#Cc1ccc(-n2c(/C=C/c3ccc4ccccc4c3)nc3ncccc3c2=O)cc1 [4s, (E)-3-(4-Ethynylphenyl)-2-(2-(naphthalen-2-yl)vinyl)pyrido[2,3-d]pyrimidin-4(3H)-one], the “Log10 TGI50” value is reported as >−4.00.

These compounds were tested on U251 (assay: SRB 48 h growth assay, CNS U251). Settings: not given.
Type: cell-based, human
With C#Cc1ccc(-n2c(/C=C/c3ccc4ccccc4c3)nc3ncccc3c2=O)cc1 [4s, (E)-3-(4-Ethynylphenyl)-2-(2-(naphthalen-2-yl)vinyl)pyrido[2,3-d]pyrimidin-4(3H)-one] the “Log10 TGI50” value was >−4.00.

Same assay, conditions: Homo sapiens, U-251, read-out: Growth Inhibition GI50
In the case of C#Cc1ccc(-n2c(/C=C/c3ccc4ccccc4c3)nc3ncccc3c2=O)cc1 [4s, (E)-3-(4-Ethynylphenyl)-2-(2-(naphthalen-2-yl)vinyl)pyrido[2,3-d]pyrimidin-4(3H)-one], the GI50 is reported as 3690 nM.

Same assay, conditions: Homo sapiens, U-251, read-out: Log10 GI50 (converted)
C#Cc1ccc(-n2c(/C=C/c3ccc4ccccc4c3)nc3ncccc3c2=O)cc1 [4s, (E)-3-(4-Ethynylphenyl)-2-(2-(naphthalen-2-yl)vinyl)pyrido[2,3-d]pyrimidin-4(3H)-one] was tested, and the GI50 was 3720 nM.

Same assay, conditions: Homo sapiens, U-251, read-out: Log10 LC50 (converted)
In the case of C#Cc1ccc(-n2c(/C=C/c3ccc4ccccc4c3)nc3ncccc3c2=O)cc1 [4s, (E)-3-(4-Ethynylphenyl)-2-(2-(naphthalen-2-yl)vinyl)pyrido[2,3-d]pyrimidin-4(3H)-one], the CC50 is reported as > 100000 nM.

The compounds below were run on HT-29 (assay: SRB 48 h growth assay, Colon HT-29). Settings: HT-29, Colon.
Type: cell-based, human
C#Cc1ccc(-n2c(/C=C/c3ccc4ccccc4c3)nc3ncccc3c2=O)cc1 [4s, (E)-3-(4-Ethynylphenyl)-2-(2-(naphthalen-2-yl)vinyl)pyrido[2,3-d]pyrimidin-4(3H)-one] was tested, and the “Log10 TGI50” value was >−4.00.

Same assay, conditions: Homo sapiens, HT-29, Colon, read-out: Growth Inhibition GI50
In the case of C#Cc1ccc(-n2c(/C=C/c3ccc4ccccc4c3)nc3ncccc3c2=O)cc1 [4s, (E)-3-(4-Ethynylphenyl)-2-(2-(naphthalen-2-yl)vinyl)pyrido[2,3-d]pyrimidin-4(3H)-one], the GI50 is reported as 3260 nM.

Same assay, conditions: Homo sapiens, HT-29, Colon, read-out: Log10 GI50 (converted)
C#Cc1ccc(-n2c(/C=C/c3ccc4ccccc4c3)nc3ncccc3c2=O)cc1 [4s, (E)-3-(4-Ethynylphenyl)-2-(2-(naphthalen-2-yl)vinyl)pyrido[2,3-d]pyrimidin-4(3H)-one] gave a GI50 of 3240 nM.

Same assay, conditions: Homo sapiens, HT-29, Colon, read-out: Log10 LC50 (converted)
For C#Cc1ccc(-n2c(/C=C/c3ccc4ccccc4c3)nc3ncccc3c2=O)cc1 [4s, (E)-3-(4-Ethynylphenyl)-2-(2-(naphthalen-2-yl)vinyl)pyrido[2,3-d]pyrimidin-4(3H)-one], the CC50 was > 100000 nM.

What follows are compounds tested on SK-MEL-2 (assay: SRB 48 h growth assay, Melanoma SK-MEL-2). Settings: Homo sapiens, SK-MEL-2, Melanoma, read-out: Growth Inhibition GI50.
Type: cell-based, human
With C#Cc1ccc(-n2c(/C=C/c3ccc4ccccc4c3)nc3ncccc3c2=O)cc1 [4s, (E)-3-(4-Ethynylphenyl)-2-(2-(naphthalen-2-yl)vinyl)pyrido[2,3-d]pyrimidin-4(3H)-one] the GI50 was 2410 nM.

Same assay, conditions: Homo sapiens, SK-MEL-2, Melanoma, read-out: Log10 GI50 (converted)
Work on C#Cc1ccc(-n2c(/C=C/c3ccc4ccccc4c3)nc3ncccc3c2=O)cc1 [4s, (E)-3-(4-Ethynylphenyl)-2-(2-(naphthalen-2-yl)vinyl)pyrido[2,3-d]pyrimidin-4(3H)-one] yielded a GI50 of 2400 nM.
